Experimental findings from ChEMBL document CHEMBL4376867 (J Med Chem, 2020) are described below.

For series [1], the target named is T1, Serine/threonine-protein kinase TBK1 (Homo sapiens, UniProt Q9UHD2).
T1 sequence (Q9UHD2 whole entry): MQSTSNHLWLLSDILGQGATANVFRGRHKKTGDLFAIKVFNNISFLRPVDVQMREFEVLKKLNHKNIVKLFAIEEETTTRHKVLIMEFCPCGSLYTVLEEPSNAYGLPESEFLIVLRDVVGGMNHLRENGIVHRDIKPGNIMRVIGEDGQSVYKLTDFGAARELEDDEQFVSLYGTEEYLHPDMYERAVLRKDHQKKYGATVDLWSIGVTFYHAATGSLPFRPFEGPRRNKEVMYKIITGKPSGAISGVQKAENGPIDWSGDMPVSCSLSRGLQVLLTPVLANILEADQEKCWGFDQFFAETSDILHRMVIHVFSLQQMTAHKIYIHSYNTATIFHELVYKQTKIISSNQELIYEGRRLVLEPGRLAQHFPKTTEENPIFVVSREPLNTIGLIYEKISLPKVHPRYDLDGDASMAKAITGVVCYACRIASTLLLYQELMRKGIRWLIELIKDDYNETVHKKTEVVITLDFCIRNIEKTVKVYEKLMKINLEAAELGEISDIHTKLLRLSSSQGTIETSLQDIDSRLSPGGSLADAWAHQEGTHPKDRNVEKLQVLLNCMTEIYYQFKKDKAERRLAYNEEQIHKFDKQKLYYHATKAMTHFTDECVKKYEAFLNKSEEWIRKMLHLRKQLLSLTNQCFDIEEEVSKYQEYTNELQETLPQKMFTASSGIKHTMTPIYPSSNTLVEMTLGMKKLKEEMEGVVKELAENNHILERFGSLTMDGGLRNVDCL
In words: Inhibition of recombinant full length human N-terminal His-tagged TBK1 using biotin-labelled Ahx-GDEDFSSFAEPG peptide as substrate preincubated with enzyme for 15 mins followed by substrate addition and further incubated for 30 mins in presence of 1 mM of ATP by TR-FRET assay.

Series [2] in a line: Apparent permeability of compound across basal to apical membrane in human Caco2 cells at 2 uM in DMSO after 2 hrs by LC-MS/MS analysis. In kind it is ADME, cell-based. The note with it: Caco-2. In general terms: Passage across Caco-2 layers is used to estimate intestinal permeability.
In series [3] the target is T2, Inhibitor of nuclear factor kappa-B kinase subunit epsilon (Homo sapiens, UniProt Q14164).
T2 sequence (Q14164 whole entry): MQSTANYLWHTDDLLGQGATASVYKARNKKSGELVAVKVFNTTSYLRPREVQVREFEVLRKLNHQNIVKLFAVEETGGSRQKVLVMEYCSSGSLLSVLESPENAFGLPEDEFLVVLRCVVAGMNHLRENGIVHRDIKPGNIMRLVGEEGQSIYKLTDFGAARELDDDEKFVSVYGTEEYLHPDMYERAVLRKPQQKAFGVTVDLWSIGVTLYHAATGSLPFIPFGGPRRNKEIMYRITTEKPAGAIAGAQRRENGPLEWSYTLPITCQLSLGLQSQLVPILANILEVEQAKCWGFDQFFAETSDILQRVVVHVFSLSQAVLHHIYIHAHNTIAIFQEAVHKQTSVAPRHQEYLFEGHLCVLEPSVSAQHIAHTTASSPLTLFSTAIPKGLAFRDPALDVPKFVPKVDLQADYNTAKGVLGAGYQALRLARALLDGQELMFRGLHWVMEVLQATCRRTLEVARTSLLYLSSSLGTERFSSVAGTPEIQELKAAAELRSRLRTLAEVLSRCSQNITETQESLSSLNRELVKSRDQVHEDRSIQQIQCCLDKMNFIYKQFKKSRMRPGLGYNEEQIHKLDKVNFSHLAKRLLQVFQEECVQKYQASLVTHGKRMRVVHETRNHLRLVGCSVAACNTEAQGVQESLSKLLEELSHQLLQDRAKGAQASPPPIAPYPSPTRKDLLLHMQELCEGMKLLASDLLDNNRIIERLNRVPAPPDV
Description: Inhibition of recombinant full length human C-terminal GST-tagged IKKepsilon expressed in baculovirus expression system using biotin-labelled Ahx-GDEDFSSFAEPG peptide as substrate preincubated with enzyme for 15 mins followed by substrate addition and further incubated for 30 mins in presence of 10 uM of ATP by TR-FRET assay. In general terms: Time-resolved FRET reads energy transfer from a long-lived donor to a nearby acceptor.

A short description of series [4]: Efflux ratio of apparent permeability across basolateral to apical membrane over apical to basolateral membrane in human Caco2 cells. The note with it: Caco-2. In kind it is ADME, cell-based.
Series [5] is described as follows: Apparent permeability of compound across apical to basal membrane in human Caco2 cells at 2 uM in DMSO after 2 hrs by LC-MS/MS analysis. The note with it: Caco-2. The class given is ADME, cell-based.
In series [6] the target is T1, Serine/threonine-protein kinase TBK1.
Series [7] addresses T3, Receptor-type tyrosine-protein kinase FLT3 (Homo sapiens, UniProt P36888).
T3 sequence (P36888 whole entry): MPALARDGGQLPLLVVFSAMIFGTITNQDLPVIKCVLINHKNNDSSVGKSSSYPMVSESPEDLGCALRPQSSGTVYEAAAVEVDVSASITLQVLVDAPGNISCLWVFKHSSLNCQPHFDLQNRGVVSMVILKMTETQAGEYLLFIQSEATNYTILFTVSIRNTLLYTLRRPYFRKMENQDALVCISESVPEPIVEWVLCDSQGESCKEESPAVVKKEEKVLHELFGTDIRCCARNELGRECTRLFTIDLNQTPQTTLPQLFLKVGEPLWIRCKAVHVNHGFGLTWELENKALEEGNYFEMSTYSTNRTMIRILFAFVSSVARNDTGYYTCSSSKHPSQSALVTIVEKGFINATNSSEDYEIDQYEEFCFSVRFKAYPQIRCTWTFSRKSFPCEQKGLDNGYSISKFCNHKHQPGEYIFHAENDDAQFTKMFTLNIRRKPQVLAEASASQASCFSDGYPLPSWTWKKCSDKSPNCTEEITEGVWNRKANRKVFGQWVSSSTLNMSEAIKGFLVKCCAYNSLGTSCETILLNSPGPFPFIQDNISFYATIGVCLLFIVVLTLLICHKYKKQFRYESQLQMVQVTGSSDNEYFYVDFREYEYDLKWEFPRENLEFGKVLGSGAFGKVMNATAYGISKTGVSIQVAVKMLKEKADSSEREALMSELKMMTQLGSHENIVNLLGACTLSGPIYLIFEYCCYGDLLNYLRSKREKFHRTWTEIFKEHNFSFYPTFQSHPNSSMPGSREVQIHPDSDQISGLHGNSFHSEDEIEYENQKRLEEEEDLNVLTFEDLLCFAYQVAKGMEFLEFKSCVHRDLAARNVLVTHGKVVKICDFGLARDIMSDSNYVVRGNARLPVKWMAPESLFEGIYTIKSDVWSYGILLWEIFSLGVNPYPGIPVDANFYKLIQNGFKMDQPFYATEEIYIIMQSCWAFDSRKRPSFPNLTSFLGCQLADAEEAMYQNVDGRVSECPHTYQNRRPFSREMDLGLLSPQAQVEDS
Description: Inhibition of recombinant human N-terminal GST-tagged FLT3 (564 to end residues) expressed in sf21 cells using biotin labelled Ahx-GGEEEEYFELVKKKK peptide as substrate preincubated with enzyme for 15 mins followed by substrate addition and further incubated for 45 mins in presence of 10 uM of ATP by TR-FRET assay.

The target of the next series is T4, IKK epsilon/TBK1 (Homo sapiens, UniProt Q14164+Q9UHD2).
T4 sequence (Q14164 whole entry): T2 sequence (Q14164 whole entry)
T4 sequence (Q9UHD2 whole entry): T1 sequence (Q9UHD2 whole entry)
Description: Inhibition of IKKepsilon/TBK1 in human MDB-MB-231 cells transduced with lentiviral vector expressing human IRF3 assessed as decrease in poly(I:C)-stimulated IRF3 phosphorylation at S385/386 residues preincubated for 1 hr followed by poly(I:C) addition and measured after 1 hr. In kind it is cell-based.

Another series deals with CDK9/cyclin T1 (Homo sapiens, UniProt P50750). Description: Inhibition of recombinant full length human His-tagged CDK9/CyclinT1 expressed in baculovirus expression system using biotin-labelled Ttds-YISPLKSPYKISEG peptide as substrate preincubated with enzyme for 15 mins followed by substrate addition and further incubated for 25 mins presence of 10 uM of ATP by TR-FRET assay.
Sequence of CDK9/cyclin T1 (O60563 whole entry): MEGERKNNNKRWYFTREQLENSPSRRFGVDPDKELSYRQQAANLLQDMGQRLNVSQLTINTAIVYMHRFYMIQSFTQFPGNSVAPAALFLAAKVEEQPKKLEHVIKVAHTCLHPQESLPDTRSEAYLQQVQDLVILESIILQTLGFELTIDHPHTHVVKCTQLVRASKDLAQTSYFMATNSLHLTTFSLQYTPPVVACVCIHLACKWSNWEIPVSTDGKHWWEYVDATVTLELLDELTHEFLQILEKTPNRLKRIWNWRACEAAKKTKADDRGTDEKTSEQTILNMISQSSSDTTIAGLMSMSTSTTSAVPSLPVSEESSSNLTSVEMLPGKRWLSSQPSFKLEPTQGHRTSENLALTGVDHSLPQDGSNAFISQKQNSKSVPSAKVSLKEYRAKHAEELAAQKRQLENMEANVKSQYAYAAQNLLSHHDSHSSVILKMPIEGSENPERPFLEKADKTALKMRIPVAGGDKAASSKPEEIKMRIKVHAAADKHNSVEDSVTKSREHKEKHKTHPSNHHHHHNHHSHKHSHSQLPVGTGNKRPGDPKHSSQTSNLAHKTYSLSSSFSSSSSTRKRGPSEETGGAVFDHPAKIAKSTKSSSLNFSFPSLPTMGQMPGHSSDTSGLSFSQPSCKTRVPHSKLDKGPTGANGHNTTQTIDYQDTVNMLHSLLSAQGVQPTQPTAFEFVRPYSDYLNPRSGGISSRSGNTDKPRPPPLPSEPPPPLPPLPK
Sequence of CDK9/cyclin T1 (P50750 whole entry): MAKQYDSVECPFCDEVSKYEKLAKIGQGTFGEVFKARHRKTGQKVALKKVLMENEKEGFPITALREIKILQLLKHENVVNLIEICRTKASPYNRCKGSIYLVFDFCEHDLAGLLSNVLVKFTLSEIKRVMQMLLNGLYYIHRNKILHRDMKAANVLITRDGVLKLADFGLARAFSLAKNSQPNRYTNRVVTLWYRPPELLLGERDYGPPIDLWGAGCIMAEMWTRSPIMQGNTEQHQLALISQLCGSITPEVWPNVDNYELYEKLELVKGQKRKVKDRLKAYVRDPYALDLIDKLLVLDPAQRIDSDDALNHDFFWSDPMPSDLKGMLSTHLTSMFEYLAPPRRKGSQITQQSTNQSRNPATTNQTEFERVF

For a further series, the system named is SK-MEL-2. In words: Antiproliferative activity against human SK-MEL-2 cells harboring NRAS/TP53 mutation assessed as reduction in cell viability after 96 hrs by CellTiter-Glo luminescence assay. The class given is functional, cell-based. The settings on record: SK-MEL-2, 96 h.
Series [8] addresses Ribosomal protein S6 kinase alpha-6 (Homo sapiens, UniProt Q9UK32). In words: Inhibition of recombinant full length human His6-tagged RSK4 expressed in baculovirus infected sf21 cells using biotin labelled Ahx-KKLNRTLSFAEPG peptide as substrate preincubated with enzyme for 15 mins followed by substrate addition and further incubated for 30 mins in presence of 10 uM of ATP by TR-FRET assay.

For a further series, the system named is ACHN. Description: Antiproliferative activity against human ACHN cells harboring CDKN2A mutation assessed as reduction in cell viability after 96 hrs by CellTiter-Glo luminescence assay. The class given is functional, cell-based.

Sequence of Ribosomal protein S6 kinase alpha-6 (Q9UK32 whole entry): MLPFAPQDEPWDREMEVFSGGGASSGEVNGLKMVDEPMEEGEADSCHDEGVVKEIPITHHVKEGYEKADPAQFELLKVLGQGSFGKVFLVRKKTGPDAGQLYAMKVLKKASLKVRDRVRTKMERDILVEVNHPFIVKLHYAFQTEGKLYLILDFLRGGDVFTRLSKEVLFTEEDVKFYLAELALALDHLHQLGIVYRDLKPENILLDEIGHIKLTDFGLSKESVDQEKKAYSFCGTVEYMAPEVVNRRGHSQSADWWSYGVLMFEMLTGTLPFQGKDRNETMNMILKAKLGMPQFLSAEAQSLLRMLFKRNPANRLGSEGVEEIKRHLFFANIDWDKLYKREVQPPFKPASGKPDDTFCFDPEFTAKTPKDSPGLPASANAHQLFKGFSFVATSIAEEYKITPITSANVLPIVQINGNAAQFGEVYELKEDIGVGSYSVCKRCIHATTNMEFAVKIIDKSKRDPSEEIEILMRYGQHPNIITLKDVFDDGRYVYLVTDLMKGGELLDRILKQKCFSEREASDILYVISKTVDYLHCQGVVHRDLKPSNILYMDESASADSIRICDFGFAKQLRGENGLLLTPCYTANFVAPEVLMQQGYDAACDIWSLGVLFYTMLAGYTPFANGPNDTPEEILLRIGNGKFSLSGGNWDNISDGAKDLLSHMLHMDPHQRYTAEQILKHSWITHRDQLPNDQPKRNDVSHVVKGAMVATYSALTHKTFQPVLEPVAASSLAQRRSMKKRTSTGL

The term IC50 denotes the concentration that gives 50% inhibition. The Papp B→A is how fast a substance crosses the layer from the basolateral side. Broadly, the efflux ratio is a quotient of directional permeabilities that is used to spot active efflux. As a reminder, the Papp A→B is how fast a substance crosses the layer from the apical side. Take `Cc1noc(-c2ccc3nc(Nc4cc(CN5CCN(C(=O)C6CC6)CC5)ccn4)[nH]c3c2)n1`: the IC50 in series [1] came to 1270 nM; in series [3] it was 154 nM; in [6], 148 nM. Further, the Papp B→A at 2 h, 2 µM in series [2] turned out to be 15.1 ×10⁻⁶ cm/s. For the same compound, the efflux ratio in [4] came out at 2.2. For the same compound, the Papp A→B at 2 h, 2 µM in series [5] was 6.8 ×10⁻⁶ cm/s.

Consider `CN(C)c1cc(-c2ccc3nc(Nc4cc(CN5CCN(C(=O)CC(F)(F)F)CC5)ccn4)[nH]c3c2)ccn1`, for which the IC50 is 388 nM in series [1]; 1 nM in series [7]; 1260 nM on IKK epsilon/TBK1; 35 nM in [3]; 263 nM on CDK9/cyclin T1; 337 nM in the series with SK-MEL-2. For the same compound, the IC50 in series [8] is 2830 nM; in the series on ACHN, 2240 nM.

Turning to `CCn1cc(-c2ccc3nc(Nc4cc(CN5CCN(C(=O)CC(F)(F)F)CC5)ccn4)[nH]c3c2)cn1`, the IC50 in series [1] is 530 nM; in series [7], 17 nM; on IKK epsilon/TBK1 it was 1580 nM; in [3] it was 98 nM; at CDK9/cyclin T1, 1460 nM; in series [8] it was 8850 nM. The Papp B→A at 2 h, 2 µM in series [2] was found to be 17.3 ×10⁻⁶ cm/s. Besides, in series [4], the efflux ratio was determined as 10. The Papp A→B at 2 h, 2 µM in series [5] was 1.7 ×10⁻⁶ cm/s.

Consider `O=C(NCC1CC1)c1ccc2nc(Nc3cc(CN4CCN(C(=O)CC(F)(F)F)CC4)ccn3)[nH]c2c1`, for which the IC50 in series [1] is 1390 nM; in series [3], 80 nM; on CDK9/cyclin T1, more than 20000 nM; in the series with SK-MEL-2, 3360 nM; with ACHN it was more than 33000 nM; in series [6], 93 nM. Further, the Papp B→A at 2 h, 2 µM in series [2] was 15.5 ×10⁻⁶ cm/s. In series [4], the efflux ratio was determined as 40. Further, the apparent permeability from apical to basolateral (Papp A→B) at 2 h, 2 µM in [5] worked out at 0.39 ×10⁻⁶ cm/s.

As for `N#Cc1ccc2nc(Nc3cc(CN4CCN(C(=O)CC(F)(F)F)CC4)ccn3)[nH]c2c1`, the concentration for half-maximal inhibition (IC50) in series [1] was 618 nM; on IKK epsilon/TBK1, 2030 nM; in [3], 17 nM; at CDK9/cyclin T1, 5 nM; in series [6], 29 nM. Moreover, in [2], the Papp B→A at 2 h, 2 µM is 26.8 ×10⁻⁶ cm/s. Also, the efflux ratio in [4] is 8.3. Besides, the Papp A→B at 2 h, 2 µM in [5] was determined as 3.2 ×10⁻⁶ cm/s.

In the case of `Cc1noc(-c2ccc3nc(Nc4cc(CN5CCN(C(=O)CC6CC6)CC5)ccn4)[nH]c3c2)n1`, the IC50 in series [1] was found to be 1920 nM; in [3] it was 226 nM. Also, the Papp B→A at 2 h, 2 µM in series [2] is 12.4 ×10⁻⁶ cm/s. Moreover, in series [4], the efflux ratio was determined as 2.4. Moreover, the Papp A→B at 2 h, 2 µM in series [5] stood at 5.2 ×10⁻⁶ cm/s.

Regarding `Cc1noc(-c2ccc3nc(Nc4cc([C@H](C)N5CCN(C(=O)CC(F)(F)F)CC5)ccn4)[nH]c3c2)n1`, the IC50 in [1] came to 2490 nM; on IKK epsilon/TBK1, 3020 nM; in series [3], 200 nM; in [6], 106 nM. Moreover, the Papp B→A at 2 h, 2 µM in [2] is 7.9 ×10⁻⁶ cm/s. For the same compound, in series [4], the efflux ratio was 0.7. In [5], the Papp A→B at 2 h, 2 µM was 11.4 ×10⁻⁶ cm/s.
